The subject of the experiment is human osteoporosis. As to the kind of experiment: Case 1: bone density and symptoms of a person with compression fractures. Format: in vivo. As to conditions: human patient. The text has this: In the present specification, bone density can be measured by an existing measuring method, for example, by dual-energy-x-ray absorptiometry (DXA) of the trunk bone.
[1] abbreviates: hydrogen gas inhalation 1.5% to 2.0% by volume.

As for `[HH]` [hydrogen gas, molecular hydrogen], under setting [1], the body feeling entry was “feeling that the body became light”; the “daily activity (weeding in the garden)” value is given as “weeding in the garden becoming easy”; the “feeling when waking up in the morning” value was “having a good feeling and feeling refreshed”; the gait entry is given as “improvement in the gait”. For the same molecule, under setting [1], the “pain at the compression fracture sites in the lower back” value is “improvement” and the tiredness entry is recorded as “feeling tired less easily”. The bone density (inhalation from November 2020, 1.5% to 2.0% by volume hydrogen, 30 mL/min, nightly, measured March 2021 (84% in August 2020)) is recorded as 92%.

Take “denosumab [Pralia Subcutaneous Injection, reference compound]”: the bone density result reads like this: (baseline 74%, injection once every six months, 18 months later) “exceeded 80%”; (injection once every six months, August 2020) 84%; (injection once every six months, February 2020) 86%.

The values are drawn from patent US20220280558A1, “MOLECULAR HYDROGEN-CONTAINING COMPOSITION FOR PREVENTING OR IMPROVING OSTEOPOROSIS” (MiZ Company Limited, priority 2021, published 2022).
